From ChEMBL document CHEMBL2062419, “Synthesis and antiviral activities of hexadecyloxypropyl prodrugs of acyclic nucleoside phosphonates containing guanine or hypoxanthine and a (S)-HPMP or PEE acyclic moiety” (Eur J Med Chem, 2012)
The source made the active and inactive calls. The rule behind the calls is not given here.

Tests used:
HEL = assay: Cytotoxicity against HEL cells assessed as effect on cell growth incubated for 3 days by Coulter counter assay; format: cell-based; conditions: human, 72 h
[1] = Cytotoxicity against HEL cells assessed as effect on cell morphology incubated for 3 days by microscopy; format: cell-based; conditions: human
[2] = tested on: Human immunodeficiency virus 2; assay: Antiviral activity against HIV2 ROD infected in human CEM cells assessed as reduction in virus-induced CEM giant cell formation incubated for 4 days at 37 degC by microscopy; format: functional, organism-based; conditions: ISOLATE ROD, CCRF-CEM
Human alphaherpesvirus 3 [3] = assay: Antiviral activity against thymidine kinase positive VZV YS infected in HEL cells by plaque formation assay; format: functional, organism-based; conditions: Human alphaherpesvirus 3, YS
Felid alphaherpesvirus 1 = assay: Antiviral activity against Feline herpesvirus infected in CRFK cells by viral CPE assay; format: functional, organism-based; conditions: Felid alphaherpesvirus 1, CRFK
[4] = Selectivity index, ratio of cytotoxic CC50 for HEL cells to EC50 for ACV resistant HSV1 KOS
Human alphaherpesvirus 2 = assay: Antiviral activity against HSV2 G infected in HEL cells by viral CPE assay; format: functional, organism-based; conditions: Human alphaherpesvirus 2, strain G
Sindbis virus = assay: Antiviral activity against Sindbis virus by viral CPE assay; format: functional, organism-based
[5] = Selectivity index, ratio of cytotoxic CC50 for HEL cells to EC50 for HCMV Davis
Coxsackievirus B4 = assay: Antiviral activity against Human coxsackievirus B4 by viral CPE assay; format: functional, organism-based
Human betaherpesvirus 5 [6] = assay: Antiviral activity against HCMV Davis infected in HEL cells by viral CPE assay; format: functional, organism-based; conditions: Human betaherpesvirus 5, Davis
[7] = Selectivity index, ratio of cytotoxic CC50 for HEL cells to EC50 for VZV YS
Human alphaherpesvirus 1 [8] = assay: Antiviral activity against thymidine kinase negative and ACV resistant HSV1 KOS infected in HEL cells by viral CPE assay; format: functional, organism-based; conditions: Human alphaherpesvirus 1, KOS
Human alphaherpesvirus 3 [9] = assay: Antiviral activity against thymidine kinase negative VZV 07/01 infected in HEL cells by plaque formation assay; format: functional, organism-based; conditions: Human alphaherpesvirus 3, 07/01, HEL
[10] = Selectivity index, ratio of cytotoxic CC50 for HEL cells to EC50 for HCMV AD169
Vaccinia virus = assay: Antiviral activity against Vaccinia virus Lederie infected in HEL cells by viral CPE assay; format: functional, organism-based; conditions: Orthopoxvirus vaccinia
[11] = tested on: Human immunodeficiency virus 1; assay: Antiviral activity against HIV1 3B infected in human CEM cells assessed as reduction in virus-induced CEM giant cell formation incubated for 4 days at 37 degC by microscopy; format: functional, organism-based; conditions: CCRF-CEM
Human alphaherpesvirus 1 [12] = assay: Antiviral activity against HSV1 KOS infected in HEL cells by viral CPE assay; format: functional, organism-based; conditions: Human alphaherpesvirus 1, KOS
[13] = Selectivity index, ratio of cytotoxic CC50 for HEL cells to EC50 for HSV2 G
Human betaherpesvirus 5 [14] = assay: Antiviral activity against HCMV AD169 infected in HEL cells by viral CPE assay; format: functional, organism-based; conditions: Human betaherpesvirus 5, AD169, HEL
[15] = tested on: Vesicular stomatitis virus; assay: Antiviral activity against VSV by viral CPE assay; format: functional, organism-based
[16] = Selectivity index, ratio of cytotoxic CC50 for HEL cells to EC50 for HSV1 KOS
[17] = tested on: Mammalian orthoreovirus 1; assay: Antiviral activity against Reovirus 1 by viral CPE assay; format: functional, organism-based
Punta Toro virus = assay: Antiviral activity against Punta Toro virus by viral CPE assay; format: functional, organism-based
[18] = Selectivity index, ratio of cytotoxic CC50 for HEL cells to EC50 for VZV Oka
Human alphaherpesvirus 3 [19] = assay: Antiviral activity against thymidine kinase positive VZV OKa infected in HEL cells by plaque formation assay; format: functional, cell-based, Human herpesvirus 3 strain Oka vaccine; conditions: Human alphaherpesvirus 3, OKa
Human respirovirus 3 = assay: Antiviral activity against Human parainfluenza virus 3 by viral CPE assay; format: functional, organism-based
[20] = Selectivity index, ratio of cytotoxic CC50 for HEL cells to EC50 for Vaccinia virus Lederie; format: toxicity, cell-based; conditions: human, read-out: Ratio CC50/EC50
[21] = tested on: Respiratory syncytial virus; assay: Antiviral activity against Respiratory syncytial virus Long by viral CPE assay; format: functional, organism-based
[22] = Selectivity index, ratio of cytotoxic CC50 for HEL cells to EC50 for VZV 07/01

Row | SMILES | CC50 (HEL) | MCC at 72 h [1] | Activity [2] | EC50 (Felid alphaherpesvirus 1) | EC50 (Human alphaherpesvirus 2) | Activity (Sindbis virus) | Activity (Coxsackievirus B4) | EC50 (Human betaherpesvirus 5 [6]) | EC50 (Human alphaherpesvirus 1 [8]) | EC50 (Human alphaherpesvirus 3 [9]) | EC50 (Vaccinia virus) | Activity [11] | EC50 (Human alphaherpesvirus 1 [12]) | EC50 (Human betaherpesvirus 5 [14]) | Activity [15] | Activity [17] | Activity (Punta Toro virus) | EC50 (Human alphaherpesvirus 3 [19]) | Activity (Human respirovirus 3) | Activity [21] | further results
1 | CCCCCCCCCCCCCCCCOCCCOP(=O)(O)CCOCCn1cnc2c(=O)[nH]c(N)nc21 | 26 µM | ≥ 34 µM | inactive | > 171 µM | 1.9 µM | inactive | inactive | 0.06 µM | 2.8 µM | 0.3 µM | ≥ 34 µM | inactive | 1.37 µM | 0.13 µM | inactive | inactive | inactive | 0.14 µM | inactive | inactive | EC50 (Human alphaherpesvirus 3 [3]): 0.19 µM; Ratio CC50/EC50 [4]: 9; Ratio CC50/EC50 [5]: 433; Ratio CC50/EC50 [7]: 137; Ratio CC50/EC50 [10]: 200; Ratio CC50/EC50 [13]: 14; Ratio CC50/EC50 [16]: 19; Ratio CC50/EC50 [18]: 186; selectivity ratio [20]: < 1; Ratio CC50/EC50 [22]: 87
2 | Nc1ccn(C[C@@H](CO)OCP(=O)(O)O)c(=O)n1 [CIDOFOVIR] | 241 µM | > 317 µM |  |  |  |  |  |  | 1.75 µM |  | 14 µM |  | 0.93 µM | 1.37 µM |  |  |  |  |  |  | 
3 | CCCCCCCCCCCCCCCCOCCCOP(=O)(CO[C@H](CO)Cn1cnc2c(=O)[nH]cnc21)OCCCOCCCCCCCCCCCCCCCC | > 115 µM | ≥ 23 µM | inactive | > 115 µM | > 115 µM | inactive | inactive | > 23 µM | > 115 µM | > 4.6 µM | > 115 µM | inactive | > 115 µM | > 23 µM | inactive | inactive | inactive | > 23 µM | inactive | inactive | 
4 | CCCCCCCCCCCCCCCCOCCCOP(=O)(CCOCCn1cnc2c(=O)[nH]cnc21)OCCCOCCCCCCCCCCCCCCCC | 117 µM | ≥ 117 µM | inactive | > 23.4 µM | > 117 µM | inactive | inactive | > 23.4 µM | > 117 µM | > 23.4 µM | > 117 µM | inactive | > 117 µM | > 23.4 µM | inactive | inactive | inactive | > 23.4 µM | inactive | inactive | 
5 | CCCCCCCCCCCCCCCCOCCCOP(=O)(O)CO[C@H](CO)Cn1cnc2c(=O)[nH]cnc21 | 66 µM | ≥ 34 µM | inactive | > 34 µM | > 6.8 µM | inactive | inactive | 15.2 µM | > 6.8 µM |  | > 6.8 µM | inactive | > 6.8 µM | > 34 µM | inactive | inactive | inactive | > 6.8 µM | inactive | inactive | 
6 | CCCCCCCCCCCCCCCCOCCCOP(=O)(CCOCCn1cnc2c(=O)[nH]c(N)nc21)OCCCOCCCCCCCCCCCCCCCC | > 115 µM | ≥ 23 µM | inactive | > 115 µM | > 115 µM | inactive | inactive | > 23 µM | > 115 µM | > 23 µM | > 115 µM | inactive | > 115 µM | > 23 µM | inactive | inactive | inactive | > 23 µM | inactive | inactive | 
7 | Nc1nc2c(ncn2COCCO)c(=O)[nH]1 [ACYCLOVIR] | 918 µM | > 444 µM |  |  | 0.38 µM |  |  |  | ≥ 212 µM |  | > 1000 µM |  | 0.53 µM |  |  |  |  |  |  |  | 
8 | CCCCCCCCCCCCCCCCOCCCOP1(=O)CO[C@@H](Cn2cnc3c(=O)[nH]cnc32)CO1 (mixture of isomers) | > 176 µM | ≥ 7 µM | inactive | > 176 µM | > 7 µM | inactive | inactive | > 7 µM | > 7 µM | > 1.4 µM | > 7 µM | inactive | > 7 µM | > 7 µM | inactive | inactive | inactive | > 1.4 µM | inactive | inactive | 
9 | CCCCCCCCCCCCCCCCOCCCOP(=O)(O)CCOCCn1cnc2c(=O)[nH]cnc21 | 78 µM | 175 µM | inactive | > 35 µM | > 35 µM | inactive | inactive | > 35 µM | > 35 µM | > 35 µM | > 35 µM | inactive | > 35 µM | > 35 µM | inactive | inactive | inactive | > 35 µM | inactive | inactive | 
10 | Nc1nc(O)c2ncn(COC(CO)CO)c2n1 [GANCICLOVIR] | 231 µM | > 394 µM |  | 1.15 µM | 0.029 µM |  |  |  |  |  | ≥ 93 µM |  |  |  |  |  |  |  |  |  | 
